# Data as given in patent publication US8680259B2, “Method and compositions for the identification of agents that have a potential effect against chronic inflammatory diseases” (Universität Leipzig, priority 2010, dated 2014).
# Legend:
# [1] = tested on: primary CD14+ monocytes; assay: IL-1β production of monocytes stimulated with increased extracellular Ca2+ plus TLR ligand; format: cell-based, human
# Experimental: FIGS. 3c and 3d show IL-1β release of primary CD14^+ monocytes in response to increasing extracellular calcium concentration alone (c) or to increased [Ca^2+] in combination with LPS (100 ng/ml) (d) after 16 h of stimulation. The bar underneath the x axis represents the physiological range of the extracellular ionized Ca^2+ concentration (1.2 mM).
# The following TLR ligands (human TLR1-9 Agonist Kit, InvivoGen) were used at the following concentrations: TLR1/2 agonist—Pam3CSK4 (1 μg/ml), TLR2 agonist—heat-killed preparation of Listeria monocytogenes (10^8 cells/ml), TLR3 agonist—Poly(I:C) (10 μg/ml), TLR4 agonist—E. coli K12 LPS (100 ng/ml), TLR5 agonist—S. typhimurium flagellin (1 μg/ml), TLR6/2 agonist—FSL1 (1 μg/ml), TLR7 agonist—Imiquimod (1 μg/ml), TLR8 agonist—ssRNA40 (1 μg/ml) and TLR9 agonist—CpG ODN2006 (5 μM). […]
# In all experiments shown in FIGS. 3 and 4, IL-1β concentrations were determined in the supernatant by ELISA.
# Human and murine IL-1β were measured by commercially available enzyme-immunoassay following the manufacturer's protocol. […]
# LPS (Escherichia coli 0111:B4 ultrapure, 100 ng/ml, Invivogen) was used at a concentration of 100 ng/ml. […] Final Ca^2+ ion concentrations in the media were measured after anaerobic sampling (sealed blood gas syringes were completely filled under an CO2 atmosphere, and were closed with caps to avoid loss of CO2) on an ABL 730 (Radiometer). […]
# [2] = molecular target: GPRC6A (Mus musculus, UniProt Q8K4Z6); details: wild type mice; Aluminum Lactate 0.3 mg/100 ml with Carrageenan 1 g/100 ml vs Carrageenan alone; p<0.001
# GPRC6A, sequence (Q8K4Z6 21-928): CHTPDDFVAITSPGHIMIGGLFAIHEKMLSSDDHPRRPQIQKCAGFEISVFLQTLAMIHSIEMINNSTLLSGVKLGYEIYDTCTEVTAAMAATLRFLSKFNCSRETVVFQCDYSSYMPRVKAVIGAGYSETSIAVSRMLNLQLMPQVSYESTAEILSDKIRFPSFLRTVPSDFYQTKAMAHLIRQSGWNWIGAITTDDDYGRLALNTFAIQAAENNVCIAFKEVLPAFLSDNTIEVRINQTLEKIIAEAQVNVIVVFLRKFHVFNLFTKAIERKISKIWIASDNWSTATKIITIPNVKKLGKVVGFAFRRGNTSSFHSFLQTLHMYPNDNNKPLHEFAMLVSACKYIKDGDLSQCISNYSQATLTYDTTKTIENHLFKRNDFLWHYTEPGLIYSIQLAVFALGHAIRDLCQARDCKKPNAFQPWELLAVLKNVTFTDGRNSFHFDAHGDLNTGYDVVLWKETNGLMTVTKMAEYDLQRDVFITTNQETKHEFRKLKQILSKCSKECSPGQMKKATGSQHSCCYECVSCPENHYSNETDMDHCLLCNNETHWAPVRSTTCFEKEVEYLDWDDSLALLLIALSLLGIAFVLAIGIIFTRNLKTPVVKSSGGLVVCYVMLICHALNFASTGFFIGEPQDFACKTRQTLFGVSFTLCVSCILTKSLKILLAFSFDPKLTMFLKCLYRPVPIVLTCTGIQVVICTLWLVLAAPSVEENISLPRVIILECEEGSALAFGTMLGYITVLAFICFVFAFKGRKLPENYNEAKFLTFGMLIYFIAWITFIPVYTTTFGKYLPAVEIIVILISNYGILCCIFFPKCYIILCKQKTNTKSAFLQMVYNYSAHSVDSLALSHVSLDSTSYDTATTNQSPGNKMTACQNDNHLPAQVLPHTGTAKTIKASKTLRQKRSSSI
compound,measurement,setting,value
"[Ca+2].[Cl-].[Cl-] [Ca^2+, CaCl2]","IL-1β production, factor of increase in comparison to endotoxin (LPS) alone",[1]; extracellular ionized Ca2+ in combination with LPS,20
Aluminum Lactate,footpad swelling,[2],amplification of Carrageenan induced footpad swelling
"Tenascin: endogenous TLR ligand, extracellular matrix glycoprotein; Tenascin-C from Millipore",IL-1β production,[1]; endogenous TLR ligand in combination with increased extracellular Ca2+ concentrations,comparable to the Ca^2+ plus LPS induced levels
